Patent publication US20190239509A1, “METHOD OF CONTROLLING PLANTS” (SYNGENTA PARTICIPATIONS AG, priority 2016, published 2019)

Key:
Format in all cases: in vivo
[1] = tested on: Amaranthus viridis (AMAVI); experiment: B2 drilled field trial Brazil, post-emergence, AMAVI; details: 100=total damage, 0=no damage; for AMAVI 7DAA Observed: 7 days after application; for AMAVI 30 DAA Observed: 30 days after application
Procedure: (§1) Seeds of a variety of test species were used in drilled field trials to look at the control of important weed species present in corn crops as well as the effect on soybean (a volunteer crop in corn). Trials were carried out in Brazil in the summer season.
(§2) Plot size was 10-12 m^2, and two replicates were carried out per treatment. Plants were treated post-emergence at the 4 leaf stage. Fungicides and insecticides were used as necessary for plant health. The test was evaluated at 7 and 30 days after application (Amaranthus viridis (AMAVI), Bidens pilosa (BIDPI), Euphorbia heterophylla (EPPHL)) and 9 and 37 days after application (Brachiaria plantaginea (BRAPL) and soybean (Glycine max GLXMA) with 100=total damage to plant and 0=no damage to plant.
(§3) Expected results were calculated using the Colby Formula.

[2] = tested on: Bidens pilosa (BIDPI); experiment: B2 drilled field trial Brazil, post-emergence, BIDPI; details: 100=total damage, 0=no damage; for BIDPI 7DAA Observed: 7 days after application; for BIDPI 30 DAA Observed: 30 days after application
Procedure: as §1, §2, §3

[3] = tested on: Euphorbia heterophylla (EPPHL); experiment: B2 drilled field trial Brazil, post-emergence, EPPHL; details: 100=total damage, 0=no damage; for EPPHL 7DAA Observed: 7 days after application; for EPPHL 30 DAA Observed: 30 days after application
Procedure: as §1, §2, §3

[4] = tested on: Brachiaria plantaginea (BRAPL); experiment: B2 drilled field trial Brazil, post-emergence, BRAPL; details: 100=total damage, 0=no damage; for BRAPL 9DAA Observed: 9 days after application; for BRAPL 37 DAA Observed: 37 days after application
Procedure: as §1, §2, §3

[5] = tested on: soybean (Glycine max GLXMA); experiment: B2 drilled field trial Brazil, post-emergence, soybean; details: 100=total damage, 0=no damage; for GLXMA 9DAA Observed: 9 days after application; for GLXMA 37 DAA Observed: 37 days after application
Procedure: as §1, §2, §3

[6] = tested on: Amaranthus retroflexus (AMARE); experiment: B3 drilled field trial Brazil, post-emergence, AMARE; details: 28 days after application, 100=total damage, 0=no damage
Procedure: (§4) Seeds of a variety of test species were used in drilled field trials to look at the control of important weed species present in corn crops as well as the effect on soybean (a volunteer crop in corn). Trials were carried out in Brazil in the summer season and the second season.
(§5) Plot size was 10-15 m^2, and two replicates were carried out per treatment. Plants were treated post-emergence between the 2 and 4 leaf stage. Species tested were Amaranthus retroflexus (AMARE), Ipomoea grandifolia (IAQGR), Digitaria horizontalis (DIGHO), Bidens pilosa (BIDPI), Eleusine indica (ELEIN), Brachiaria decumbens (BRADC), Centrus echinatus (CCHEC), Euphorbia heterophylla (EPPHL), Brachiaria plantaginea (BRAPL) and Glycine max (GLXMA; soybean). Fungicides and insecticides were used as necessary for plant health. The test was evaluated at 28 days after application with 100=total damage to plant and 0=no damage to plant.
as §3

[7] = tested on: Ipomoea grandifolia (IAQGR); experiment: B3 drilled field trial Brazil, post-emergence, IAQGR; details: 28 days after application
Procedure: as §4, §5, §3

[8] = tested on: Digitaria horizontalis (DIGHO); experiment: B3 drilled field trial Brazil, post-emergence, DIGHO; details: 28 days after application
Procedure: as §4, §5, §3

With `CCOC1C(O)N(c2cc(C(C)(C)C)on2)C(=O)N1C` (stereo not drawn) [Compound 1.4] the “AMAVI 7DAA Observed” value ([1]; 75 g ai/ha) was 10, the “AMAVI 30 DAA Observed” value ([1]; 75 g ai/ha) was 13 and the “AMAVI 7DAA Observed” value ([1]; 100 g ai/ha) was 20. For the same compound, the “AMAVI 30 DAA Observed” value ([1]; 100 g ai/ha) was 20, the “AMAVI 7DAA Observed” value ([1]; 150 g ai/ha) was 40 and the “AMAVI 30 DAA Observed” value ([1]; 150 g ai/ha) was 40. For the same compound, the “BIDPI 7DAA Observed” value ([2]; 75 g ai/ha) was 8, the “BIDPI 30 DAA Observed” value ([2]; 75 g ai/ha) was 8 and the “BIDPI 7DAA Observed” value ([2]; 100 g ai/ha) was 10. For the same compound, the “BIDPI 30 DAA Observed” value ([2]; 100 g ai/ha) was 13, the “BIDPI 7DAA Observed” value ([2]; 150 g ai/ha) was 28 and the “BIDPI 30 DAA Observed” value ([2]; 150 g ai/ha) was 20. The “EPPHL 7DAA Observed” value ([3]; 75 g ai/ha) was 25, the “EPPHL 30 DAA Observed” value ([3]; 75 g ai/ha) was 18 and the “EPPHL 7DAA Observed” value ([3]; 100 g ai/ha) was 30. For the same compound, the “EPPHL 30 DAA Observed” value ([3]; 100 g ai/ha) was 25, the “EPPHL 7DAA Observed” value ([3]; 150 g ai/ha) was 48 and the “EPPHL 30 DAA Observed” value ([3]; 150 g ai/ha) was 25. For the same compound, the “BRAPL 9DAA Observed” value ([4]; 75 g ai/ha) was 18, the “BRAPL 37 DAA Observed” value ([4]; 75 g ai/ha) was 0 and the “BRAPL 9DAA Observed” value ([4]; 100 g ai/ha) was 15. For the same compound, the “BRAPL 37 DAA Observed” value ([4]; 100 g ai/ha) was 0, the “BRAPL 9DAA Observed” value ([4]; 150 g ai/ha) was 23 and the “BRAPL 37 DAA Observed” value ([4]; 150 g ai/ha) was 0. The “GLXMA 9DAA Observed” value ([5]; 75 g ai/ha) was 63, the “GLXMA 37 DAA Observed” value ([5]; 75 g ai/ha) was 45 and the “GLXMA 9DAA Observed” value ([5]; 100 g ai/ha) was 55. For the same compound, the “GLXMA 37 DAA Observed” value ([5]; 100 g ai/ha) was 0, the “GLXMA 9DAA Observed” value ([5]; 150 g ai/ha) was 73 and the “GLXMA 37 DAA Observed” value ([5]; 150 g ai/ha) was 30. The “AMARE Second season Observed” value ([6]; 50 g ai/ha) was 12, the “AMARE Summer season Observed” value ([6]; 50 g ai/ha) was 73 and the “AMARE Second season Observed” value ([6]; 75 g ai/ha) was 14. For the same compound, the “AMARE Summer season Observed” value ([6]; 75 g ai/ha) was 80, the “AMARE Second season Observed” value ([6]; 100 g ai/ha) was 39 and the “AMARE Summer season Observed” value ([6]; 100 g ai/ha) was 90. For the same compound, the “AMARE Second season Observed” value ([6]; 150 g ai/ha) was 52, the “AMARE Summer season Observed” value ([6]; 150 g ai/ha) was 100 and the “Observed damage (100=total damage to plant, 0=no damage)” value ([7]; Second season, 50 g ai/ha) was 0. For the same compound, the “Observed damage (100=total damage to plant, 0=no damage)” value ([7]; Second season, 75 g ai/ha) was 3, the “Observed damage (100=total damage to plant, 0=no damage)” value ([7]; Second season, 100 g ai/ha) was 36 and the “Observed damage (100=total damage to plant, 0=no damage)” value ([7]; Second season, 150 g ai/ha) was 69. For the same compound, the “Observed damage (100=total damage to plant, 0=no damage)” value ([7]; Summer season, 50 g ai/ha) was 33, the “Observed damage (100=total damage to plant, 0=no damage)” value ([7]; Summer season, 75 g ai/ha) was 38 and the “Observed damage (100=total damage to plant, 0=no damage)” value ([7]; Summer season, 100 g ai/ha) was 68. For the same compound, the “Observed damage (100=total damage to plant, 0=no damage)” value ([7]; Summer season, 150 g ai/ha) was 100, the “Observed damage (100=total damage to plant, 0=no damage)” value ([8]; Second season, 50 g ai/ha) was 0 and the “Observed damage (100=total damage to plant, 0=no damage)” value ([8]; Second season, 75 g ai/ha) was 0. For the same compound, the “Observed damage (100=total damage to plant, 0=no damage)” value ([8]; Second season, 100 g ai/ha) was 0, the “Observed damage (100=total damage to plant, 0=no damage)” value ([8]; Second season, 150 g ai/ha) was 0 and the “Observed damage (100=total damage to plant, 0=no damage)” value ([8]; Summer season, 50 g ai/ha) was 23.
